Laboratory results from US9546139B2, “Pyridine carboxylic acid based compound used as a P2X1 and P2X3 receptor antagonist, a production method for the same and a composition comprising the same” (GWANGJU INSTITUTE OF SCIENCE AND TECHNOLOGY, priority 2010, dated 2017).
Read-outs that look alike come from different tables or passages of the source. Each block holds one compound with its values, some of them ahead of it.

Key:
[1] = molecular target: T1, human P2X3 receptor (Homo sapiens, UniProt P56373); experiment: Two-electrode voltage clamp, ATP-induced ion current in Xenopus oocytes expressing human P2X3; format: cell-based; details: for inhibition at 0.1 µM: 100 nM compound; for inhibition at 0.1 µM / inhibition at 10 µM: read-out: % inhibition hP2X3
T1 construct: expressed in transfected cells; host or cells: Xenopus oocytes (cRNA injected); cDNA from the Max-Planck Institute laboratory (Dr. W. Stuhmer and Dr. F. Soto)
T1 sequence (P56373 1-397): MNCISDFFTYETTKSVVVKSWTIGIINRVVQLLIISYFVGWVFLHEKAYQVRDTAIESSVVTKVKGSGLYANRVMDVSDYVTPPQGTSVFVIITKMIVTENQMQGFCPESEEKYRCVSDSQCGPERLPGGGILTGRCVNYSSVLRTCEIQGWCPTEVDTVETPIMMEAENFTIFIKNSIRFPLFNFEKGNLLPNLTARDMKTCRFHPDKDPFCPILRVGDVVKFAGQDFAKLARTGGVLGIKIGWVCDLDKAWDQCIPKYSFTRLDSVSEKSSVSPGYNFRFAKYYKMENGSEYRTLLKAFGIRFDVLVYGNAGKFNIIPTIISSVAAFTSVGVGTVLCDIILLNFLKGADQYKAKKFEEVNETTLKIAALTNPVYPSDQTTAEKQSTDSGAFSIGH
Procedure: Antagonistic Activity at Recombinant Mouse P2X1 and Human P2X3 Receptors
(§1) Xenopus oocytes were harvested and prepared with method as previously described in publications. Defolliculated oocytes were injected cytosolically with mouse P2X1 and human P2X3 receptor cRNA ([…], 1 μg/mL), respectively, incubated for 24 hrs at 18° C. in Barth's solution and kept for up to 12 days at 4° C. until used in electrophysiological experiments. ATP-activated membrane currents (Vh=−70 mV) were recorded from cRNA-injected oocytes using the twin-electrode voltage-clamp technique (Axoclamp 2B amplifier). Voltage recording (1-2 MΩ tip resistance) and current-recording microelectrodes (5 MΩ tip resistance) were filled with 3.0 M KCl. Oocytes were held in an electrophysiological chamber and superfused with Ringer's solution (5 mL/min, at 18° C.) containing (mM) NaCl, 110; KCl, 2.5; HEPES, 5; BaCl2, 1.8, adjusted to pH 7.5. ATP was superfused over the oocytes for 60-120s then washed out for a period of 20 min. For inhibition curves, data were normalized to the current evoked by ATP, at pH 7.5. Test substances were added for 20 min prior to ATP exposure; all peptides were tested for reversibility of their effects. The concentration required to inhibit the ATP response by 50% (IC50) was taken from Hill plots constructed using the formula: log(I/Imax−1), where I is the current evoked by ATP in the presence of an antagonist. Data are presented as mean±SEM (n=4) for the data from different batches of oocytes.

[2] = molecular target: T2, mouse P2X1 receptor (Mus musculus, UniProt P51576); experiment: Two-electrode voltage clamp, ATP-induced ion current in Xenopus oocytes expressing mouse P2X1; format: cell-based; details: for inhibition at 0.1 µM / inhibition at 10 µM: read-out: % inhibition mP2X1; for antagonistic activity, mouse P2X1 versus human P2X3: comparison of the two receptors
T2 construct: EST clones containing full-length cDNAs of mouse P2X1 (clone ID: 4189541) and human P2X7 receptor (clone ID: 5286944); host or cells: Xenopus oocytes (cRNA injected)
T2 sequence (P51576 1-399): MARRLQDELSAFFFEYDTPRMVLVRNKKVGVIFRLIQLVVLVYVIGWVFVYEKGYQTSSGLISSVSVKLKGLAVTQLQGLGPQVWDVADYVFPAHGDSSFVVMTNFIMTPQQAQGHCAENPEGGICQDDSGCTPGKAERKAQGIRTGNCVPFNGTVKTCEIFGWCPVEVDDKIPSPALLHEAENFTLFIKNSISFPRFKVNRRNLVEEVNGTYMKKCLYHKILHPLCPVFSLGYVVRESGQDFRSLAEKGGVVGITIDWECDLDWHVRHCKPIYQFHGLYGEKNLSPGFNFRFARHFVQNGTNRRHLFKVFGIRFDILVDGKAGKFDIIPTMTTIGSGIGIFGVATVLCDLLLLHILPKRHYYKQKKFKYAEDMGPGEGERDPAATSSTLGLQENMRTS
Procedure: 1-1. Antagonistic Activity at Recombinant Mouse P2X1 and Human P2X3 Receptors
as §1

[3] = Table 1, ion current induced by 2 μM ATP, mean ± SEM, n = 4
[4] = Table 1, 100 nM compound, ion current induced by 2 μM ATP, mean ± SEM, n = 4
[5] = Table 1, 10 μM compound, ion current induced by 2 μM ATP, mean ± SEM, n = 4
[6] = concentration-inhibitory curve, 2 μM ATP (FIG. 1C, FIG. 2B)
[7] = concentration-inhibitory curve, 2 μM ATP, read-out: IC50 value (FIG. 1C)
[8] = concentration-response curve, 2 μM ATP, mean of four observations, read-out: IC50 value
[9] = concentration-inhibitory curve, 2 μM ATP (FIG. 1B, FIG. 2A)
[10] = concentration-inhibitory curve, 2 μM ATP, read-out: IC50 value (FIG. 1B)

Compound: Cc1nc(N=Nc2cc(S(=O)(=O)O)ccc2S(=O)(=O)O)c(CCC(=O)O)c(C(=O)O)c1O [Compound 25, 3-(2-Carboxyethyl)-2-((2,5-disulfophenyl)diazenyl)-5-hydroxy-6-methylisonicotinic acid]
inhibition at 0.1 µM [1, 3]: 45.7 ± 10.8% | % inhibition mP2X1 [2, 4]: 60.2 ± 4.9% | inhibition at 0.1 µM [2, 4]: 60% | antagonistic activity, mouse P2X1 versus human P2X3 [2]: more powerful antagonistic activity to mouse P2X1 than human P2X3 receptor

Compound: Cc1nc(N=Nc2ccc(C(=O)O)cc2)c(CCC(=O)O)c(C(=O)O)c1O [Compound 29, 3-(2-carboxyethyl)-2-((4-carboxyphenyl)diazenyl)-5-hydroxy-6-methy lisonicotinic acid]
inhibition at 0.1 µM [1, 3]: 25.7 ± 6.9% | inhibition at 0.1 µM [2, 4]: 51.7 ± 7.4% | antagonistic activity, mouse P2X1 versus human P2X3 [2]: more powerful antagonistic activity to mouse P2X1 than human P2X3 receptor

Compound: Cc1ncc(CN(CCC(=O)O)Cc2ccccc2)c(C(=O)O)c1O [Compound 23, 5-((Benzyl(2-carboxyethyl)amino)methyl)-3-hydroxy-2-methylisonicotinic acid]
% inhibition hP2X3 [1, 5]: inactive | % inhibition mP2X1 [2, 5]: inactive

Compound: Cc1ncc(CCC(=O)O)c(C=O)c1O [Compound 13, 3-(4-formyl-5-hydroxy-6-methylpyridin-3-yl) propanoic acid]
inhibition at 10 µM [1, 5]: 22.3 ± 8.1% | inhibition at 10 µM [2, 5]: 19.5 ± 5.1%

Compound: Cc1ncc(C=CC(=O)O)c(C(=O)O)c1O [Compound 18, 5-(2-Carboxyvinyl)-3-hydroxy-2-methylisonicotinic acid]
% inhibition hP2X3 [1, 5]: inactive | % inhibition mP2X1 [2, 5]: inactive

Compound: Cc1nc(N=Nc2cc(S(=O)(=O)O)ccc2S(=O)(=O)O)c(COP(=O)(O)O)c(C=O)c1O [Compound 3, pyridoxal-phosphate-6-azophenyl-2′,5′-disulfonic acid, reference compound]
% inhibition hP2X3 [1]: 48.3 ± 5.6% | Hill coefficient [1]: −1.11±0.27 | IC50 ([1]; read-out: IC50 value (FIG. 1C)): 96.2 ± 21 nM | % inhibition mP2X1 [2]: 62.4 ± 3.1% | Hill coefficient [2]: −1.09±0.13 | IC50 ([2]; read-out: IC50 value (FIG. 1B)): 30.7 ± 5.12 nM

Compound: Cc1ncc(CN(CCC(=O)O)Cc2ccccc2)c(C=O)c1O [Compound 22, 3-(Benzyl((4-formyl-5-hydroxy-6-methylpyridin-3-yl)methyl)amino)propanoic acid]
% inhibition hP2X3 [1, 5]: inactive | % inhibition mP2X1 [2, 5]: inactive

Compound: Cc1ncc(C=CC(=O)O)c(C=O)c1O [Compound 17, 3-(4-Formyl-5-hydroxy-6-methylpyridin-3-yl)acrylic acid]
inhibition at 10 µM [1, 5]: 9.3 ± 2.3% | inhibition at 10 µM [2, 5]: 7.4 ± 1.9%

Compound: O=C(O)c1cc(C(=O)O)c(C(=O)N(Cc2cccc(Oc3ccccc3)c2)[C@H]2CCCc3ccccc32)cc1C(=O)O [A-317491, reference compound]
Hill coefficient [1, 6]: −0.68±0.18

Compound: Cc1ncc(CCC(=O)O)c(C(=O)O)c1O [Compound 14, 5-(2-Carboxyethyl)-3-hydroxy-2-methyl isonicotinic acid]
inhibition at 10 µM [1, 5]: 15.2 ± 7.7% | inhibition at 10 µM [2, 5]: 14.8 ± 1.7%

Continued, in another order:

inhibition at 0.1 µM [1, 3]: 46.5 ± 11.2% | inhibition at 0.1 µM [2, 4]: 41.8 ± 9.8%
Compound: Cc1nc(N=Nc2ccc(S(=O)(=O)O)cc2)c(CCC(=O)O)c(C=O)c1O [Compound 26, 3-(4-Formyl-5-hydroxy-6-methyl-2-((4-sulfophenyl)diazenyl)pyridin-3-yl)propanoic acid]

inhibition at 0.1 µM [1, 3]: 37.6 ± 6.9% | inhibition at 0.1 µM [2, 4]: 57.6 ± 8.8%
Compound: Cc1nc(N=Nc2ccc(S(=O)(=O)O)cc2)c(CCC(=O)O)c(C(=O)O)c1O [Compound 27, 3-(2-carboxyethyl)-5-hydroxy-6-methyl-2-((4-sulfophenyl)diazenyl)isonicotinic acid]
antagonistic activity, mouse P2X1 versus human P2X3 [2]: more powerful antagonistic activity to mouse P2X1 than human P2X3 receptor

inhibition at 0.1 µM [1, 3]: 56.3 ± 8.8% | Hill coefficient [1, 6]: −1.08±0.02 | IC50 [1, 7]: 79.8 ± 1.21 nM | IC50 [1, 8]: 80 nM | inhibition at 0.1 µM [2, 4]: 48.5 ± 9.5% | Hill coefficient [2, 9]: −1.20±0.45 | IC50 [2, 10]: 130 ± 13.6 nM | IC50 [2, 8]: 130 nM
Compound: Cc1nc(N=Nc2ccc(C(=O)O)cc2)c(CCC(=O)O)c(C=O)c1O [Compound 28, 4-((3-(2-carboxyethyl)-4-formyl-5-hydroxy-6-methylpyridin-2-yl)diazenyl)benzoic acid]

inhibition at 0.1 µM [1, 3]: 40.1 ± 8.4% | Hill coefficient [1, 6]: −1.18±0.25 | IC50 [1, 7]: 105 ± 17.5 nM | IC50 [1, 8]: 105 nM | inhibition at 0.1 µM [2, 4]: 58.6 ± 4.5% | Hill coefficient [2, 9]: −1.13±0.40 | IC50 [2, 10]: 70.5 ± 2.72 nM | IC50 [2, 8]: 70 nM
Compound: Cc1nc(N=Nc2cc(S(=O)(=O)O)ccc2S(=O)(=O)O)c(CCC(=O)O)c(C=O)c1O [Compound 24, 3-(2-((2,5-Disulfophenyl)diazenyl)-4-formyl-5-hydroxy-6-methylpyridin-3-yl)propanoic acid]
inhibitory activity to the ATP-induced ion current ([2]; FIG. 1A, 2 μM ATP, two concentrations): concentration-dependent inhibitory activity

Hill coefficient [2, 9]: −1.13±0.20
Compound: Cc1nc(/N=N/c2ccc(C(=O)O)cc2)c(COP(=O)(O)O)c(C=O)c1O [MRS2159, reference compound]
